According to PubChem BioAssay (NCI):
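Where inhibition never reached the appropriate level, the endpoint shown equals the highest concentration tested. Otherwise, values were interpolated linearly from a five-concentration, 48-hour dose response in 96-well plates. Here, GI50 denotes the concentration required for 50% inhibition of growth. TGI denotes the concentration required for complete inhibition of growth.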

Assays:
Assay in all cases: DTP human tumour cell line panel, 48 h
SF-295 CNS = system: SF-295 CNS
PC-3 prostate = system: PC-3 prostate
MDA-MB-231 breast = system: MDA-MB-231 breast
K-562 leukemia = system: K-562 leukemia
U251 CNS = system: U251 CNS
786-0 renal = system: 786-0 renal
T-47D breast = system: T-47D breast
OVCAR-3 ovarian = system: OVCAR-3 ovarian
COLO 205 colon = system: COLO 205 colon
A549 NSCLC = system: A549 NSCLC
CAKI-1 renal = system: CAKI-1 renal
SK-MEL-2 melanoma = system: SK-MEL-2 melanoma
CCRF-CEM leukemia = system: CCRF-CEM leukemia
HOP-92 NSCLC = system: HOP-92 NSCLC
MDA-MB-435 = system: MDA-MB-435
HCC-2998 colon = system: HCC-2998 colon
IGROV1 ovarian = system: IGROV1 ovarian
A498 renal = system: A498 renal
RXF 393 renal = system: RXF 393 renal
NCI-H226 lung = system: NCI-H226 lung
RPMI-8226 leukemia = system: RPMI-8226 leukemia
KM12 colon = system: KM12 colon
NCI-H23 lung = system: NCI-H23 lung
MCF7 breast = system: MCF7 breast
BT-549 breast = system: BT-549 breast
DU-145 prostate = system: DU-145 prostate
EKVX NSCLC = system: EKVX NSCLC
MOLT-4 leukemia = system: MOLT-4 leukemia
SNB-75 CNS = system: SNB-75 CNS
HS 578T breast = system: HS 578T breast
OVCAR-4 ovarian = system: OVCAR-4 ovarian
SF-268 CNS = system: SF-268 CNS
MALME-3M melanoma = system: MALME-3M melanoma
LOX IMVI melanoma = system: LOX IMVI melanoma
HCT-116 colon = system: HCT-116 colon
SW-620 colon = system: SW-620 colon
SNB-19 CNS = system: SNB-19 CNS
M14 melanoma = system: M14 melanoma
UO-31 renal = system: UO-31 renal
NCI-H522 lung = system: NCI-H522 lung
NCI/ADR-RES ovarian = system: NCI/ADR-RES ovarian
SR leukemia = system: SR leukemia
SF-539 CNS = system: SF-539 CNS
SK-MEL-5 melanoma = system: SK-MEL-5 melanoma
HT29 colon = system: HT29 colon
TK-10 renal = system: TK-10 renal
OVCAR-5 ovarian = system: OVCAR-5 ovarian
NCI-H460 lung = system: NCI-H460 lung
SK-MEL-28 melanoma = system: SK-MEL-28 melanoma
SK-OV-3 ovarian = system: SK-OV-3 ovarian
ACHN renal = system: ACHN renal
SN12C renal = system: SN12C renal
OVCAR-8 ovarian = system: OVCAR-8 ovarian
UACC-62 melanoma = system: UACC-62 melanoma
HCT-15 colon = system: HCT-15 colon
HOP-62 NSCLC = system: HOP-62 NSCLC
HL-60(TB) leukemia = system: HL-60(TB) leukemia
UACC-257 melanoma = system: UACC-257 melanoma

For `Nc1cc2nc3ccccc3oc-2cc1=O`, the GI50 (SF-295 CNS) was 1.44 µM, the TGI (SF-295 CNS) was 3.79 µM and the GI50 (PC-3 prostate) was 16.7 µM. The TGI (PC-3 prostate) was greater than 100 µM, the GI50 (MDA-MB-231 breast) was 22.9 µM and the TGI (MDA-MB-231 breast) was greater than 100 µM. For the same molecule, the GI50 (K-562 leukemia) was 2.05 µM, the TGI (K-562 leukemia) was greater than 26.9 µM and the GI50 (U251 CNS) was 1.73 µM. It also gave a TGI (U251 CNS) of 12.3 µM, a GI50 (786-0 renal) of 20.7 µM and a TGI (786-0 renal) greater than 83.4 µM. For the same molecule, the GI50 (T-47D breast) was 14.9 µM, the TGI (T-47D breast) was greater than 100 µM and the GI50 (OVCAR-3 ovarian) was 3.54 µM. It also gave a TGI (OVCAR-3 ovarian) of 29.3 µM, a GI50 (COLO 205 colon) of 1.82 µM and a TGI (COLO 205 colon) of 3.42 µM. For the same molecule, the GI50 (A549 NSCLC) was 1.66 µM, the TGI (A549 NSCLC) was 3.84 µM and the GI50 (CAKI-1 renal) was 15.3 µM. The TGI (CAKI-1 renal) was greater than 53.7 µM, the GI50 (SK-MEL-2 melanoma) was 6.62 µM and the TGI (SK-MEL-2 melanoma) was 25.7 µM. It also gave a GI50 (CCRF-CEM leukemia) of 13.4 µM, a TGI (CCRF-CEM leukemia) greater than 64.9 µM and a GI50 (HOP-92 NSCLC) greater than 45 µM. The TGI (HOP-92 NSCLC) was greater than 100 µM, the GI50 (MDA-MB-435) was 0.516 µM and the TGI (MDA-MB-435) was 1.77 µM. For the same molecule, the GI50 (HCC-2998 colon) was 4.34 µM, the TGI (HCC-2998 colon) was 17.4 µM and the GI50 (IGROV1 ovarian) was 2.79 µM. For the same molecule, the TGI (IGROV1 ovarian) was 21.2 µM, the GI50 (A498 renal) was 5.44 µM and the TGI (A498 renal) was 11.1 µM. The GI50 (RXF 393 renal) was 5.07 µM, the TGI (RXF 393 renal) was 14.2 µM and the GI50 (NCI-H226 lung) was 2.57 µM. The TGI (NCI-H226 lung) was 9.2 µM, the GI50 (RPMI-8226 leukemia) was 0.951 µM and the TGI (RPMI-8226 leukemia) was greater than 20.4 µM. For the same molecule, the GI50 (KM12 colon) was 3.71 µM, the TGI (KM12 colon) was 43.5 µM and the GI50 (NCI-H23 lung) was 0.811 µM. The TGI (NCI-H23 lung) was 3.56 µM, the GI50 (MCF7 breast) was 1.35 µM and the TGI (MCF7 breast) was 3.33 µM. The GI50 (BT-549 breast) was 1.54 µM, the TGI (BT-549 breast) was 3.53 µM and the GI50 (DU-145 prostate) was 1.57 µM. For the same molecule, the TGI (DU-145 prostate) was 2.98 µM, the GI50 (EKVX NSCLC) was 7.38 µM and the TGI (EKVX NSCLC) was greater than 64.2 µM. It also gave a GI50 (MOLT-4 leukemia) of 10.1 µM, a TGI (MOLT-4 leukemia) greater than 63.2 µM and a GI50 (SNB-75 CNS) of 1.82 µM. For the same molecule, the TGI (SNB-75 CNS) was 4.63 µM, the GI50 (HS 578T breast) was 1.48 µM and the TGI (HS 578T breast) was 5.52 µM. It also gave a GI50 (OVCAR-4 ovarian) of 23.4 µM, a TGI (OVCAR-4 ovarian) greater than 100 µM and a GI50 (SF-268 CNS) of 4.85 µM. For the same molecule, the TGI (SF-268 CNS) was greater than 57.2 µM, the GI50 (MALME-3M melanoma) was 1.67 µM and the TGI (MALME-3M melanoma) was 3.63 µM. It also gave a GI50 (LOX IMVI melanoma) of 0.606 µM, a TGI (LOX IMVI melanoma) of 2.23 µM and a GI50 (HCT-116 colon) of 6.1 µM. It also gave a TGI (HCT-116 colon) greater than 68 µM, a GI50 (SW-620 colon) of 1.91 µM and a TGI (SW-620 colon) of 5.08 µM. The GI50 (SNB-19 CNS) was 5.44 µM, the TGI (SNB-19 CNS) was 16 µM and the GI50 (M14 melanoma) was 1.61 µM. The TGI (M14 melanoma) was 3.01 µM, the GI50 (UO-31 renal) was 1.77 µM and the TGI (UO-31 renal) was 10.4 µM. It also gave a GI50 (NCI-H522 lung) of 3.45 µM, a TGI (NCI-H522 lung) of 10.1 µM and a GI50 (NCI/ADR-RES ovarian) of 9.16 µM. The TGI (NCI/ADR-RES ovarian) was greater than 88.9 µM, the GI50 (SR leukemia) was 9.93 µM and the TGI (SR leukemia) was greater than 75.3 µM. For the same molecule, the GI50 (SF-539 CNS) was 2.45 µM, the TGI (SF-539 CNS) was 6.75 µM and the GI50 (SK-MEL-5 melanoma) was 1.16 µM. For the same molecule, the TGI (SK-MEL-5 melanoma) was 2.38 µM, the GI50 (HT29 colon) was 2.58 µM and the TGI (HT29 colon) was greater than 21.7 µM. The GI50 (TK-10 renal) was 14.3 µM, the TGI (TK-10 renal) was 39.7 µM and the GI50 (OVCAR-5 ovarian) was 2.41 µM. For the same molecule, the TGI (OVCAR-5 ovarian) was 5.79 µM, the GI50 (NCI-H460 lung) was 1.77 µM and the TGI (NCI-H460 lung) was 4.36 µM. It also gave a GI50 (SK-MEL-28 melanoma) of 1.79 µM, a TGI (SK-MEL-28 melanoma) of 3.45 µM and a GI50 (SK-OV-3 ovarian) of 19.7 µM. It also gave a TGI (SK-OV-3 ovarian) greater than 61.4 µM, a GI50 (ACHN renal) of 12.4 µM and a TGI (ACHN renal) greater than 79 µM. For the same molecule, the GI50 (SN12C renal) was 1.46 µM, the TGI (SN12C renal) was 2.9 µM and the GI50 (OVCAR-8 ovarian) was 19.7 µM. The TGI (OVCAR-8 ovarian) was greater than 100 µM, the GI50 (UACC-62 melanoma) was 1.67 µM and the TGI (UACC-62 melanoma) was 3.27 µM. The GI50 (HCT-15 colon) was 0.641 µM, the GI50 (HOP-62 NSCLC) was 2.94 µM and the TGI (HOP-62 NSCLC) was 6.64 µM. The GI50 (HL-60(TB) leukemia) was 3.19 µM, the TGI (HL-60(TB) leukemia) was greater than 100 µM and the GI50 (UACC-257 melanoma) was 2.35 µM. The TGI (UACC-257 melanoma) was 6.68 µM.
